“Also recorded” adds a separate entry of the source. Where two headings read alike, the source gives them in different places.
How the values were obtained:
[1] = tested on: synaptic transmission in the hippocampus; assay: Extracellular fEPSP recording in hippocampal slices (synaptic transmission); format: cell-based, rat
Description: (§1) Preparation of hippocampal slices: Sagittal slices of hippocampus (300-400 μm) were prepared from male Sprague Dawley rats, at postnatal days 12 to 20. Rats were kept on a 12-hour light-dark cycle with slices made 90 minutes after entering the light cycle. […] The brain was removed, cut down the mid line and the two sides of the brain stuck down to a metal base plate. […] Slices were stored at 34° C. for 1 to 6 hours in aCSF (1 mM MgCl2, 2 mM CaCl2) before use.
Extracellular recording: A slice was transferred to the recording chamber, submerged in aCSF and perfused at 4 to 6 mL/min (32° C.). The slice was placed on a grid allowing perfusion above and below the tissue and all tubing was gas tight (to prevent loss of oxygen). For extracellular recording, an aCSF filled microelectrode was placed on the surface of stratum radiatum in CA1. […] For fEPSPs a 10 to 20 minute baseline was recorded at a stimulus intensity that gave 40 to 50% of the maximal response. […] For fEPSP slope, a 1 ms linear region after the fibre volley was measured. Extracellular recordings were made independently on two electrophysiology rigs.
Statistical significance was tested using the unpaired t-test and one-way and two-way ANOVAs with Bonferroni correction for multiple comparisons.
(§2) Data Analysis. […] Statistical significance was tested as indicated in the text using paired or unpaired t-tests or one-way or two-way ANOVAs with repeated measures (RM) as appropriate. Bonferroni corrections for multiple comparisons were performed. All in vitro cell signalling assay data was analysed using Prism 7.0e (Graphpad software, San Diego, Calif.), with all concentration-response curves being fitted using a 3 parameter logistic equation to calculate response range and IC50. All cAMP data was normalised to a forskolin concentration-response curve ran in parallel to each assay. […] Radioligand displacement curves were fitted to the one-site competition binding equation yielding log Ki values. […] To determine the extent of ligand-induced recruitment of β-arrestin2-YFP to either the A1R or A3R, the BRET signal was calculated by subtracting the 530 nm/450 nm emission for vehicle-treated cells from ligand-treated cells (ligand-induced ΔBRET). ΔBRET for each concentration at 5 minutes (maximum response) was used to produce concentration-response curves.

Goa = format: cell-based, human; conditions: PTX-treated cells
Description: Cells were then incubated for 24 hours before addition of 100 ng/ml PTX, to inhibit activity of endogenous Gαi/o, and then incubated for a further 16-18 hours. Transfected cells were then assayed as per cAMP inhibition experiments, but co-stimulated with agonist and 100 nM forskolin.
as §2

[2] = tested on: seizure activity induced in hippocampal slices; assay: Seizure model in hippocampal slices (no added Mg2+, 6 mM K+ aCSF); format: cell-based, rat; conditions: adenosine 20-100 μM, NECA 300 nM, CPA 300 nM, BnOCPA 300 nM to 1 μM
Description: as §1
Seizure model: Seizure activity was induced in hippocampal slices using aCSF which contained no added Mg^2+ and with the total K^+ concentration increased to 6 mM with KCl. Removal of extracellular Mg^2+ facilitates NMDA receptor activation producing long lasting EPSPS, which can sum together to produce tonic activation. Increasing the extracellular concentration of K^+ depolarises neurons leading to firing and release of glutamate to sustain activity. Both the increase in K^+ concentration and removal of Mg^2+ are required to produce spontaneous activity in hippocampal slices. Spontaneous activity was measured with an aCSF-filled microelectrode placed within stratum radiatum in CA1.

[3] = tested on: membrane potential of pyramidal cells; assay: Whole cell current clamp recording of membrane potential, CA1 pyramidal cells; format: cell-based, rat
Description: as §1
Whole cell patch clamp recording from hippocampal pyramidal cells: A slice was transferred to the recording chamber and perfused at 3 mL/min with aCSF at 32±0.5° C. Slices were visualised using IR-DIC optics with an Olympus BX151W microscope (Scientifica) and a CCD camera (Hitachi). […] Voltage and current recordings were obtained using an Axon Multiclamp 700B amplifier (Molecular Devices, USA) and digitised at 20 KHz. Data acquisition and analysis was performed using Pclamp 10 (Molecular Devices). For voltage clamp experiments, CA1 pyramidal cells were held at −60 mV. Peptides to interfere with G protein signalling were introduced via the patch pipette into the recorded cell.

[4] = tested on: adenosine-induced outward current in CA1 pyramidal cells; assay: Whole-cell voltage clamp, adenosine-induced outward current with G protein interfering peptides; format: cell-based, rat; conditions: for mean amplitude of the adenosine-induced outward current with intracellular peptide: peptide 100 μM via patch pipette
Description: Whole cell patch clamp recording from hippocampal pyramidal cells: A slice was transferred to the recording chamber and perfused at 3 mL/min with aCSF at 32±0.5° C. Slices were visualised using IR-DIC optics with an Olympus BX151W microscope (Scientifica) and a CCD camera (Hitachi). Whole-cell current clamp recordings were made from pyramidal cells in area CA1 of the hippocampus using patch pipettes (5 to 10 MΩ) manufactured from thick walled glass (Harvard Apparatus, Edenbridge UK) and containing (mM): potassium gluconate 135, NaCl 7, HEPES 10, EGTA 0.5, phosphocreatine 10, MgATP 2, NaGTP 0.3 and biocytin 1 mg/mL (290 mOSM, pH 7.2). Voltage and current recordings were obtained using an Axon Multiclamp 700B amplifier (Molecular Devices, USA) and digitised at 20 KHz. Data acquisition and analysis was performed using Pclamp 10 (Molecular Devices). For voltage clamp experiments, CA1 pyramidal cells were held at −60 mV. Peptides to interfere with G protein signalling were introduced via the patch pipette into the recorded cell. […].
Drugs: Drugs were made up as stock solutions (1 to 10 mM) and then diluted in aCSF on the day of use. Compounds were dissolved in dimethyl-sulphoxide (DMSO, 0.01% final concentration of DMSO). […]. Peptides for interfering with G protein signalling were obtained from Hello Bio (Bristol, UK) and were based on published sequences (Varani et al., Adv Exp Med Biol 1051, 193-232 (2017)). […] The scrambled version was […]. […] Peptides were made up as stock solutions (2 mM) and stored at −20° C. The stock solutions were dissolved in filtered intracellular solution just before use.

isolated frog heart = assay: Frog heart preparation, heart rate; parameters: species or system Xenopus leavis
Description: Frog heart preparation: Xenopus […] frogs (young adult males) were supplied from Portsmouth Xenopus Resource Centre. Frogs were euthanized with MS222 (0.2% at a pH of 7), decapitated and pithed. The animals were dissected to reveal the heart and the pericardium carefully removed. Heart contractions were measured with a force transducer (AD instruments). Heart rate was acquired via a PowerLab […] (AD instruments) controlled by LabChart 7 (AD instruments). The heart was regularly washed with ringer and drugs were applied directly to the heart.

[5] = tested on: urethane-anaesthetised, spontaneously breathing adult rats; assay: In vivo anaesthetised rat preparation, heart rate and mean arterial blood pressure
[6] = rat hippocampal slices, CA1, read-out: IC50, inhibition of synaptic transmission (fEPSP slope)
[7] = IV, adenosine 1 mg·kg^−1, BnOCPA 10 μg·kg^−1, CPA 420 ng·kg^−1

Compound: Cn1c(=O)c2[nH]c(C3CCCC3)nc2n(C)c1=O [8-CPT, 8-cyclopentyltheophylline]
- effect of the A1 receptor antagonist on agonist inhibition of synaptic transmission ([1]; 8-CPT 2 μM (adenosine) or 4 μM (BnOCPA)): reversed the inhibition of synaptic transmission caused by adenosine

Compound: OC[C@H]1O[C@@H](n2cnc3c(N[C@@H]4CCC[C@H]4O)ncnc32)[C@H](O)[C@@H]1O [HOCPA]
- activation of / coupling to Goa (Goa): coupled to a range of Gi/o subunits, and in particular Goa

Compound: CCNC(=O)[C@H]1O[C@@H](n2cnc3c(N)ncnc32)[C@H](O)[C@@H]1O [NECA, 5′-(N-Ethylcarboxamido) adenosine]
- IC50 [1, 6]: 0.0083 ± 0.003 µM
- effect on seizure activity [2]: rapidly and reversibly abolished seizure activity; also recorded: blocks seizure activity in a reversible manner
- activation of / coupling to Goa (Goa): coupled to a range of Gi/o subunits, and in particular Goa

Compound: Nc1ncnc2c1ncn2[C@@H]1O[C@H](CO)[C@@H](O)[C@H]1O [adenosine]
- IC50 ([1]; Rattus norvegicus, read-out: IC50, inhibition of synaptic transmission by adenosine with 8-CPT, in the presence of 2 μM 8-CPT): 125 ± 10 µM
- IC50 [1, 6]: 20 ± 4.3 µM
- effect on seizure activity [2]: reversibly blocks seizure activity
- effect on seizure activity ([2]; listed as Adenosine): rapidly and reversibly abolished seizure activity
- membrane potential after agonist ([3]; adenosine 100 μM, CPA 300 nM): −74.1±1.5 mV
- mean change of membrane potential (hyperpolarisation) ([3]; adenosine 100 μM, CPA 300 nM, BnOCPA 300 nM-1 μM): −4.7±0.5 mV
- mean amplitude of the outward current induced by adenosine ([4]; adenosine 10 μM, control conditions, held at −60 mV): 43.9±3.1 pA
- reduction of heart rate (isolated frog heart; adenosine 30 μM): about 15%
- reduction of heart rate by adenosine following BnOCPA (isolated frog heart; adenosine 30 μM after BnOCPA 300 nM): 0.27±0.2 BPM
- reduction / change of heart rate (isolated frog heart; adenosine 30 μM, BnOCPA 300 nM, CPA): 6.25±0.6 BPM
- heart rate after application (isolated frog heart; adenosine 30 μM, from 42±1.2 BPM): 35.5±1.2 BPM
- MAP after adenosine co-injected with BnOCPA ([5]; IV co-injection): 51±4 mmHg
- change of HR by adenosine co-injected with BnOCPA ([5]; IV co-injection): about 12%
- mean change of HR by adenosine co-injected with BnOCPA ([5]; IV co-injection): 51±4 BPM
- change of HR [5, 7]: about 66%
- heart rate (HR) after injection [5, 7]: 147±12 BPM
- mean arterial blood pressure (MAP) after injection [5, 7]: 46±4 mmHg
- reduction of MAP ([5]; adenosine IV): about 47%
- effect on HR and BP ([5]; single anaesthetised rat preparation, IV): HR and BP depression

Compound: NCC(CC(=O)O)c1ccc(Cl)cc1 (stereo not drawn) [baclofen]
- mean hyperpolarisation produced by baclofen in the presence of BnOCPA ([3]; BnOCPA 300 nM): 6.5±0.43 mV
- membrane potential after baclofen in the presence of BnOCPA (example) ([3]; baclofen (10 µM), BnOCPA 300 nM, from −67 mV): −74 mV
- mean hyperpolarisation produced by baclofen in control conditions ([3]; without BnOCPA): 6.3±0.76 mV

Compound: Goa interfering peptide: peptide interfering with G protein signalling, sequence MGIANNLRGCGLY
- effect of peptide on adenosine-induced outward current [4]: caused a significant attenuation of the adenosine-induced outward current
- mean amplitude of the adenosine-induced outward current with intracellular peptide ([4]; adenosine 10 μM): 20.9±3.6 pA

Compound: Gob interfering peptide: peptide interfering with G protein signalling, sequence MGIQNNLKYIGIC
- effect of peptide on adenosine-induced outward current [4]: neither the scrambled peptide nor the Gob peptide had any effect on current amplitude
- mean amplitude of the adenosine-induced outward current with intracellular peptide ([4]; adenosine 10 μM): 37.4±2.2 pA

Compound: scrambled peptide: scrambled version of the Goa peptide, sequence LNRGNAYLCIGMG
- effect of peptide on adenosine-induced outward current [4]: neither the scrambled peptide nor the Gob peptide had any effect on current amplitude
- mean amplitude of the adenosine-induced outward current with intracellular peptide ([4]; adenosine 10 μM): 43.4±2.4 pA
